Laboratory results reported in patent US11255843B2, “Compositions and methods for identifying metabolically active agents” (Northwestern University, priority 2016, dated 2022).
Where a name gives a salt, the structure may show the parent alone.

What was measured:
[1] = system: Bmal1−/− Beta TC-6 cells; experiment: High throughput insulin-NanoLuc screen for drugs that restore glucose-stimulated insulin secretion; format: cell-based, mouse; conditions: 10 uM compound + 20 mM glucose, 1 hr
Protocol: A high throughput screen was used to identify small molecule drugs capable of restoring glucose-stimulated insulin secretion in clock-deficient beta cells. Bmal1^−/− beta cells and primary islets display reduced glucose-stimulated insulin secretion (GSIS) and that agonists of Gq-coupled muscarinic receptor and diacyl glycerol (DAG) signaling rescue secretion to that of wild type cells. Compounds to augment GSIS in Bmal1^−/− cells were identified by adding compounds in combination with 20 mM glucose and using the DAG mimetic Phorbol 12-myristate 13-acetate (PMA), which rescues GSIS in these cells, as a positive control. The spectrum collection small molecule compound library (MicroSource Discovery Systems, Inc) consisting of 2700 known drugs and drug-like molecules was screened for compounds that augment insulin secretion in Bmal1^−/− Beta TC-6 cells. Insulin Nanoluc expressing Bmal1^−/− Beta TC-6 cells (30,000 cells/well) were plated in 384 well plates and cultured for 4 days at 37° C. with 5% CO2. Prior to the assay, cells were washed once with KRB buffer containing 0 mM glucose and starved in glucose-free KRB buffer for 1 hour. After aspirating, KRB buffer containing 20 mM glucose in addition to small molecules (10 uM) were added, and the cells were incubated for 1 hour. As a negative control, 16 wells received only 20 mM glucose, which fails to elicit insulin secretion in Bmal1^−/− cells, and an additional 16 wells received KRB buffer containing 20 mM glucose and 10 μM PMA, which is known to induce insulin secretion in Bmal1^−/− mouse islets and Beta TC-6 cells. After 1 hour, the supernatant was collected and centrifuged at 500G for 30 min. The supernatant was transferred into a fresh 384-well assay plate containing Nano-Glo Luciferase Assay Substrate (Promega) and luciferase intensity was measured by EnSpire Plate Reader (PerkinElmer) Intensity was measured within 30 minutes.
Z scores for luciferase intensities produced by screened compounds were calculated from the following formula: z=(X−μ)/σ where z is the z-score, X is intensity of compounds, μ is the intensity of negative control (20 mM glucose), and σ is the standard deviation of negative control. Hit compounds were defined as those that elicited a response of more than 3 standard deviations from the mean (Z score>3). Hit Compounds
The Spectrum Collection small molecule compound library (MicroSource Discovery Systems, Inc), which consists of 2700 known drugs and drug-like molecules, was screened for compounds that augment insulin secretion in Bmal1^−/− Beta TC-6 cells. Insulin Nanoluc-expressing Bmal1^−/− Beta TC-6 cells (30,000 cells/well) were placed into 384 well plates and cultured for 4 days at 37° C. and 5% CO2. The cells were washed once and starved in KRB buffer containing 0 mM glucose for 1 hr. After removing the KRB, KRB buffer containing 20 mM glucose in addition to the small molecules (10 uM) were added, and the cells were incubated for 1 hr. As a negative control, 16 wells received KRB buffer with only 20 mM glucose, which fails to elicit insulin secretion in Bmal1^−/− cells, and as a positive control, 16 wells received KRB buffer containing 20 mM glucose and 10 μM PMA, which is known to induce insulin secretion in both Bmal1^−/− mouse islets and Beta TC-6 cells. After 1 hr, the supernatant was collected and centrifuged at 500 g for 30 min. The supernatant was transferred into a fresh 384-well assay plate containing Nano-Glo Luciferase Assay Substrate (Promega), and luciferase intensity was measured by EnSpire Plate Reader (PerkinElmer) within 30 minutes.
Z scores for luciferase intensities produced by screened compounds were calculated from the following formula: z=(X−μ)/σ (where z is the Z score, X is the intensity of the compounds, μ is the intensity of negative control (20 mM glucose), and a is the standard deviation of negative control). A row-based correction factor was applied to all luciferase readings to adjust for logarithmic signal decay. […]

[2] = system: wild-type βTC-6 cells; experiment: Glucose-stimulated insulin secretion assay in Beta TC-6 cells (ELISA); format: cell-based, mouse; conditions: for effect on glucose-stimulated insulin secretion and calcium flux (validation of hits): hit compounds at 10 and 100 μM, 0 or 20 mM glucose
Protocol: Beta TC-6 cells (300,000 cells/well) were seeded into poly-L-lysine-coated 24 well plates and cultured for 48-72 hrs at 37° C. and 5% CO2. The cells were washed once and incubated in KRB buffer containing 0 mM glucose for 1 hr. Cells were then treated for 1 hr with KRB buffer containing 0 or 20 mM glucose in the presence of hit compounds (including ivermectin, alexidine, and tomatine at final concentrations of 10 and 100 μM) or an equivalent volume of DMSO as a vehicle control. Supernatants were then collected and centrifuged at 500G for 30 min and assayed for insulin content by ELISA (Crystal Chem Inc). Cell lysates were harvested in acid-ethanol solution (0.18M HCl in 70% Ethanol), sonicated, and solubilized overnight at 4° C. before assaying total insulin content by ELISA. For insulin secretion assays following prolonged ivermectin treatment, cells were first treated with 10 μm ivermectin for 24 hrs prior to the 1 hr incubation with 0 mM glucose KRB buffer.

[3] = system: Beta-TC6 cells; experiment: Intracellular calcium determination with Fura2-AM dye; format: cell-based, mouse; conditions: Fura2-AM ratiometric, 10 μM ionomycin
Protocol: BetaTC-6 cells were plated at a density of 100,000 cells per well in black 96-well plates with clear bottoms and cultured overnight at 37° C. and 5% CO2. Islets were dispersed to single cells by incubating in 0.05% Trypsin-EDTA at 37° C. for 3 min and plated at a density of 100 islets per well in laminin-treated black 96-well plates with clear bottoms and cultured in complete media for 48 hours at 37° C. and 5% CO2. Cells were then washed with BSA-free KRB buffer with no glucose and loaded with 5 μM Fura-2 (Invitrogen) and 0.04% Pluronic F-127 (Invitrogen) for 30 min at 37° C. Following a wash with BSA-free KRB, Fura-2 intensity was measured after injection of either glucose or ionomycin (Sigma) to final concentrations of 20 mM or 10 μM, respectively. Cells were alternately excited with 340- and 380-nm light, and the emitted light was detected at 510 nm using a Cytation 3 Cell Imaging Multi-Mode Reader (Bio Tek) at sequential 30-s intervals. Raw fluorescence data were exported to Microsoft Excel and expressed as the 340/380 ratio for each well.

[4] = system: PdxCreER;Bmal1flx/flx islets; experiment: Static insulin secretion assay in islets isolated from tamoxifen-treated PdxCreER;Bmal1flx/flx mice (ELISA); format: cell-based, mouse; conditions: islets from tamoxifen-treated mutant vs control mice, stimulated 1 hour; 1 mM carbachol, 10 μM PMA, 10 μM ionomycin, 2.5 μM forskolin, 1 mM 8-Br-cAMP
Protocol: Mouse pancreatic islets were isolated via bile duct collagenase digestion (Collagenase P, Sigma) and Ficoll gradient separation and left to recover overnight (16 hours) at 37° C. in RPMI 1640 with 10% fetal bovine serum (FBS), 1% 1-glutamine, and 1% penicillin/streptomycin. For standard insulin release assays, five islets were statically incubated in Krebs-Ringer buffer (KRB) and stimulated for 1 hour at 37° C. with various glucose concentrations, 30 mM KCl, 2.5 μM forskolin, 1 mM 8-Br-cAMP, 10 mM 1-leucine+2 mM 1-glutamine, 1 mM carbachol, 10 μM PMA, or 10 μM ionomycin. Supernatant was collected and assayed for insulin content by enzyme-linked immunosorbent assay (ELISA; Crystal Chem Inc.). Islets were then sonicated in acid-ethanol solution and solubilized overnight at 4° C. before assaying total insulin content by ELISA. For rhythmic insulin release assays, islets were first synchronized with 10 μM forskolin (Sigma) for 1 hour and allowed to recover for 16 hours. Insulin secretion assays were then performed as above in individual groups of five islets every 4 hours for 72 hours (FIG. 5A). Human islets (obtained from IIDP) were cultured in RPMI 1640 with 10% human AB serum, 1% 1-glutamine, and 1% penicillin/streptomycin (see table in FIG. S4A for details of sex, age, BMI, and IIDP ID numbers of the three donors). For the rhythmic analysis of RNAs in murine and human islets, RNA was isolated (described below) in groups of 200 islets every 4 hours for 48 or 24 hours, respectively, starting 40 hours after forskolin synchronization (FIG. 5A).
For in vivo delivery of tamoxifen (Sigma, dissolved in corn oil), mice received three intraperitoneal (i.p.) injections of 200 μg tamoxifen/g body weight, administered every other day. Subsequent experiments were conducted 10 to 14 days after tamoxifen treatment. For in vitro administration of tamoxifen, isolated islets were incubated for 24 hours with […] tamoxifen (dissolved in ethanol) prior to transfer to complete media for 24 hours to recover. Islets were then synchronized with forskolin prior to insulin secretion assays as described above.

[5] = system: C2C12 myotubes; conditions: 62.5 uM DMOG; DMSO-treated controls 22 hrs, p<0.05
Protocol: For PERIOD2:LUCIFERASE (PER2:LUC) reporter assays, C2C12 myoblast cells were first infected with PER2:LUC-expressing lentivirus (gift of A. Liu, University of Memphis) (18454201) and maintained in DMEM that included 10% FBS and 2.5 μg/ml blastocidin to select for stable Per2-luc integration. Myoblasts were then differentiated for 5 days with 2% horse serum, and then synchronized in 50% horse serum for 2 hours.

[6] = system: wild-type βTC-6 cells; experiment: Calcium flux (Fura-2) after exposure to glucose and compound; format: cell-based, mouse; conditions: ivermectin 10 μM with glucose
Protocol: BetaTC-6 cells were plated at a density of 100,000 cells per well in black 96-well plates with clear bottoms and cultured overnight at 37° C. and 5% CO2. Cells were then washed with BSA-free KRB buffer with no glucose and loaded with 5 μM Fura-2 (Invitrogen) and 0.04% Pluronic F-127 (Invitrogen) for 30 min at 37° C. Following a wash with BSA-free KRB, Fura-2 intensity was measured following injection of either glucose alone or indicated compounds. Cells were alternately excited with 340 nm and 380 nm wavelength light, and the emitted light was detected at 510 nm using a Cytation 3 Cell Imaging Multi-Mode Reader (Bio Tek) at sequential 30-second intervals. Raw fluorescence data were exported to Microsoft Excel and expressed as the 340/380 ratio for each well.

[7] = system: myotubes and MEFs; experiment: Core clock gene expression after chemical hypoxia mimetic (qPCR); format: cell-based, mouse; conditions: hypoxia induced with chemical mimetic CoCl2
Protocol: Total RNA was extracted from C2C12 and MEF cell pellets and snap-frozen mouse skeletal muscle tissue using Tri-Reagent (Molecular Research Center, Inc). For muscle tissue samples, tissue was homogenized using a TissueLyser II apparatus (Qiagen). cDNA was synthesized using the High Capacity cDNA Reverse Transcription kit (Applied Biosystems). Real-time PCR was performed and analyzed using a CFX384 (Biorad). PCR conditions were: 10 min at 95° C., then 35 cycles of 10 s at 95° C., 15 s at 60° C. Relative expression levels (normalized to 18S rRNA (C2C12 and MEF) or β-actin (skeletal muscle)) were determined using the comparative CT method.

Molecule | glucose-dependent insulin secretion in the absence of BMAL1 (hit compound) [1] | effect on glucose-stimulated insulin secretion and calcium flux (validation of hits) [2] | insulin secretion in PdxCreER;Bmal1flx/flx islets in response to secretagogue [4] | further results
C[C@H]1CC[C@]2(NC1)O[C@H]1C[C@H]3[C@@H]4CC[C@H]5C[C@@H](O[C@@H]6O[C@H](CO)[C@H](O[C@@H]7O[C@H](CO)[C@@H](O)[C@H](O[C@@H]8OC[C@@H](O)[C@H](O)[C@H]8O)[C@H]7O[C@@H]7O[C@H](CO)[C@@H](O)[C@H](O)[C@H]7O)[C@H](O)[C@H]6O)CC[C@]5(C)[C@H]4CC[C@]3(C)[C@H]1[C@@H]2C [tomatine] | stimulate glucose-dependent insulin secretion | impact both glucose-stimulated insulin secretion and calcium flux |  | 
C[C@H](CCC(=O)O)C[C@H](C)C[C@H](C)C(=O)/C=C(\O)[C@H](C)C[C@H](C)C/C=C/[C@@H](C)[C@@H](O)[C@@H](C)[C@@H](O)C[C@@H]1CC[C@@](C)([C@H]2CC[C@@](C)([C@@H](C)O)O2)O1 [ionomycin] |  |  | significantly reduced in mutants | intracellular Ca2+ [3]: raised intracellular Ca2+
CCCCCCCCCCCCCC(=O)O[C@@H]1[C@@H](C)[C@@]2(O)[C@@H](C=C(CO)C[C@]3(O)C(=O)C(C)=C[C@@H]23)[C@@H]2C(C)(C)[C@]12OC(C)=O [PMA, phorbol 12-myristate 13-acetate] | rescues GSIS |  | restored insulin secretion | 
C[N+](C)(C)CCOC(N)=O [carbachol] | stimulate glucose-dependent insulin secretion |  | restored insulin secretion | 
CNC1(C)C2CCC(C2)C1(C)C (stereo not drawn) [mecamylamine hydrochloride] | stimulate glucose-dependent insulin secretion |  |  | 
COC(=O)CNC(=O)C(=O)OC [DMOG, dimethyloxalyl glycine] |  |  |  | period of PER2:LUC oscillations [5]: 23 h
CCCCC(CC)CNC(=N)NC(=N)NCCCCCCNC(=N)NC(=N)NCC(CC)CCCC (stereo not drawn) [alexidine hydrochlodire] | stimulate glucose-dependent insulin secretion | impact both glucose-stimulated insulin secretion and calcium flux |  | 
ivermectin | stimulate glucose-dependent insulin secretion | impact both glucose-stimulated insulin secretion and calcium flux |  | calcium flux in wild-type βTC-6 cells [6]: enhances glucose-stimulated insulin secretion and calcium flux; glucose-stimulated insulin secretion in wild-type βTC-6 cells ([2]; acute or prolonged exposure, presence or absence of glucose): enhances glucose-stimulated insulin secretion
[Cl][Co][Cl] [CoCl2, cobalt chloride] |  |  |  | expression of core clock genes [7]: increased expression of core clock genes
Nc1ncnc2c1nc(Br)n2[C@@H]1O[C@@H]2COP(=O)(O)O[C@H]2[C@H]1O [8-br-cAMP] |  |  | secreted significantly less insulin than controls | 
